In patent publication US20220267365A1, “NOVEL PHOSPHATE ESTER COMPOUND HAVING PYRROLOPYRIMIDINE SKELETON OR PHARMACEUTICALLY ACCEPTABLE SALT THEREOF” (TAIHO PHARMACEUTICAL CO., LTD., priority 2019, published 2022):

What was measured:
Assay type in all cases: cell-based
A431 = assay: Test Example 4 growth suppression activity, CellTiter-Glo; conditions: A-431, 72 h; A431, Human epidermoid carcinoma, 3 days
Method: (§1) Human tumor cell lines different in type were suspended in mediums, seeded in individual wells of a multi-well plate and cultured. On the day after initiation of culture, serially diluted solutions of a compound were added. Culture was carried out for further 3 days. Cells were counted by a CellTiter-Glo (manufactured by Promega KK) in accordance with the protocol recommended by Promega KK. Cell viability was calculated in accordance with the equation shown below and the concentration (IC50 (nM)) of the compound at which 50% of cell growth is inhibited was obtained.
(§2) Cell viability (%)=(T/C)×100
(§3) T: Intensity of light emitted from a well containing a compound
(§4) C: Intensity of light emitted from a well containing no compound

A549 = assay: as above; conditions: 72 h; A549, Human lung cancer, 3 days
Method: as §1, §2, §3, §4

H1650 = assay: as above; conditions: NCI-H1650, 72 h; H1650, Human lung cancer, 3 days
Method: as §1, §2, §3, §4

H2122 = assay: as above; conditions: NCI-H2122, 72 h; H2122, Human lung cancer, 3 days
Method: as §1, §2, §3, §4

H358 = assay: as above; conditions: NCI-H358, 72 h; H358, Human lung cancer, 3 days
Method: as §1, §2, §3, §4

HCC827 = assay: as above; conditions: 72 h; HCC827, Human lung cancer, 3 days
Method: as §1, §2, §3, §4

SK-BR-3 = assay: as above; conditions: 72 h; SK-BR-3, Human breast cancer, 3 days
Method: as §1, §2, §3, §4

[1] = system: human brain tumor cell line (U-87 MG); assay: Test Example 8: combination use of compound and radiation, crystal violet cell viability; conditions: any order (same-day, compound first, radiation first), Student's t-test
Method: A human brain tumor cell line (U-87 MG) was suspended in a medium, seeded in individual wells of a multi-well plate and cultured. In the case where radiation exposure and addition of a compound are simultaneously carried out, both treatments were carried out on two days after initiation of culture. In the case where addition of a compound preceded radiation exposure, a serially diluted solution of a compound was added on the day after initiation of culture and radiation exposure was carried out on two days after initiation of culture. In the case where radiation exposure preceded addition of a compound, radiation exposure was carried out on the day after initiation of culture and a serially diluted solution of a compound was added on the two days after initiation of culture. Day 5 after seeding, cells were fixed with a 25% aqueous solution of glutaraldehyde and stained with a staining fluid (0.05 w/v % crystal violet in 20% methanol). After an extract (0.1 N NaH2PO4: 100% ethanol=1:1) was added and stirred, an absorbance at 540 nm was measured to obtain a cell count. The cell viability was calculated in accordance with the following equation and statistically processed in accordance with a Student's t-test.
as §2
T: Absorbance of a well exposed to radiation or containing a compound
C: Absorbance of a well neither exposed to radiation nor containing a compound

[2] = system: human brain tumor cell line (U-87 MG); assay: Test Example 9: combinational effect of compound and temozolomide (TMZ), crystal violet cell viability; conditions: any order (same-day, compound first, TMZ first), Student's t-test
Method: A human brain tumor cell line (U-87 MG) was suspended in a medium, seeded in individual wells of a multi-well plate and cultured. In the case where two compounds are simultaneously added, both compounds were added on two days after initiation of culture. In the case where addition of the compound of the present invention preceded, a serially diluted solution of the compound was added on the day after initiation of culture and a serially diluted solution of TMZ was added two days after initiation of culture. In the case where addition of TMZ preceded, a serially diluted solution of TMZ was added on the day after initiation of culture and a serially diluted solution of the compound was added on two days after initiation of culture. Day 5 after seeding, cells were fixed with a 25% aqueous solution of glutaraldehyde and stained with a staining fluid (0.05 w/v % crystal violet in 20% methanol). After an extract (0.1 N NaH2PO4:100% ethanol=1:1) was added and stirred, an absorbance at 540 nm was measured to obtain a cell count. The cell viability was calculated in accordance with the following equation and statistically processed in accordance with a Student's t-test.
as §2
T: Absorbance of a well containing TMZ or a compound
C: Absorbance of a well containing neither TMZ nor a compound

- IC50 (A431): 18 nM
- IC50 (A549): 14 nM
- IC50 (H1650): 8 nM
- IC50 (H2122): 9 nM
- IC50 (H358): 52 nM
- IC50 (HCC827): 176 nM
- IC50 (SK-BR-3): 23 nM
SMILES: Nc1ncnc2c1c(I)cn2[C@@H]1O[C@H](CO)[C@@H](O)[C@@H]1F [Comparative Example 2, (2R,3R,4S,5R)-5-(4-amino-5-iodo-7H-pyrrolo[2,3-d]pyrimidin-7-yl)-4-fluoro-2-(hydroxymethyl) tetrahydrofuran-3-ol]
- cell viability, combination treatment with radiation exposure compared to the single treatments [1]: significantly decreased
- cell viability, combination treatment with TMZ compared to the single treatments [2]: significant decrease
